System: unilateral pulmonary fibrosis model in SD rats
Test: Prophylactic therapeutic efficacy in unilateral pulmonary fibrosis model in SD rats (bleomycin)
Format: in vivo
Design: key to Fibrosis score (Ashcraft): Ashcraft semi-quantitative fibrosis score; Evaluation of injury and inflammatory lesions of left lung: Fibrotic lesion edge / Evaluation of injury and inflammatory lesions of left lung: Fibrosis lesion: scale not given here
Conditions: for Evaluation of injury and inflammatory lesions of left lung: Fibrosis lesion / Evaluation of injury and inflammatory lesions of left lung: Fibrotic lesion edge / Fibrosis area (left pulmonary fibrosis) / Fibrosis Score 1-3 (%) / Fibrosis Score 4-8 (%) / Fibrosis score (Ashcraft) / Volume of left lung / Weight of left lung: D15, mean ± sem, n = 8; for Evaluation of injury and inflammatory lesions of left lung: Fibrosis lesion / Evaluation of injury and inflammatory lesions of left lung: Fibrotic lesion edge: HE score; for Fibrosis area (left pulmonary fibrosis): Masson trichrome; for weight of left lung compared with model group: p<0.05
Method: 40 male SD rats were randomized into Model group (Group 1, n=8), positive drug group BIBF1120 60 mg/kg/d group (Group 2, n=8), Compound A 5 mg/kg/d group (Group 3, n=8), compound A 10 mg/kg/d group (Group 4, n=8) and Compound A 20 mg/kg/d (Group 5, n=8). On the modeling day, rats were anesthetized and exposed to trachea. Bleomycin was injected into trachea of each group (dosage: 3 mg/kg, volume: 1.0 ml/kg). Oral administration was performed 2 hours after modeling, once a day. On Day 15, all the animals were killed, the left lung was taken, the weight and volume of the left lung were measured, then fixed by formalin, the bronchioles were stained with HE, Masson trichrome. The bronchioles, final bronchiole and small pulmonary artery injury and inflammation invasion were evaluated by semi-quantitative score, and pulmonary fibrosis was evaluated by Ashcraft semi-quantitative score.

[1] = 5 mg/kg/d oral from modeling day
[2] = 10 mg/kg/d oral from modeling day
[3] = 20 mg/kg/d oral from modeling day

For `CC(C)c1cnc(-c2cc(NC(=O)c3ccc(N4C[C@@H](C)N(C)[C@@H](C)C4)cc3C(F)(F)F)ccc2Cl)[nH]1` [Comp A, N-(3-(5-isopropyl-1H-imidazol-2-yl)-4-chlorophenyl)-2-trifluoromethyl-4-((3S,5R)-3,4,5-trimethylpiperazin-1-yl)benzamide], which “Evaluation of injury and inflammatory lesions of left lung: Fibrosis lesion” value (“Evaluation … Fibrosis lesion” below) [1] is on record?
Its value is 7.93 ± 0.16.

What about the “Evaluation of injury and inflammatory lesions of left lung: Fibrotic lesion edge” value (from here on “Evaluation … Fibrotic lesion edge”) [1] of the same compound?
The value was 5.93 ± 0.20.

What about the “Fibrosis area (left pulmonary fibrosis)” value [1] of the same compound?
Its value is 81.64 ± 10.49.

What about the “Fibrosis Score 1-3 (%)” value [1] of the same compound?
Its value is 62.50 ± 16.69%.

What about the “Fibrosis Score 4-8 (%)” value [1] of the same compound?
Its value is 37.50 ± 16.69%.

What about the “Fibrosis score (Ashcraft)” value [1] of the same compound?
Its value is 3.33 ± 0.36.

And the “Volume of left lung” value [1]?
The value was 1.38 ± 0.05 cm^3.

And the “Weight of left lung” value [1]?
Its value is 1.37 ± 0.08 g.

And the “Evaluation … Fibrosis lesion” value [2]?
Its value is 6.93 ± 0.21.

And the “Evaluation … Fibrotic lesion edge” value [2]?
Its value is 5.45 ± 0.28.

And the “Fibrosis area (left pulmonary fibrosis)” value [2]?
The value was 78.84 ± 4.44.

What about the “Fibrosis Score 1-3 (%)” value [2] of the same compound?
Its value is 68.75 ± 19.59%.

And the “Fibrosis Score 4-8 (%)” value [2]?
Its value is 31.25 ± 19.59%.

What about the “Fibrosis score (Ashcraft)” value [2] of the same compound?
Its value is 3.15 ± 0.32.

And the “Volume of left lung” value [2]?
The value was 1.29 ± 0.06 cm^3.

And the “Weight of left lung” value [2]?
The value was 1.13 ± 0.05 g.

What about the “Evaluation … Fibrosis lesion” value [3] of the same compound?
The value was 7.68 ± 0.31.

And the “Evaluation … Fibrotic lesion edge” value [3]?
Its value is 6.00 ± 0.13.

What about the “Fibrosis area (left pulmonary fibrosis)” value [3] of the same compound?
The value was 76.37 ± 8.33.

And the “Fibrosis Score 1-3 (%)” value [3]?
Its value is 71.25 ± 22.95%.

And the “Fibrosis Score 4-8 (%)” value [3]?
Its value is 28.75 ± 22.95%.

What about the “Fibrosis score (Ashcraft)” value [3] of the same compound?
Its value is 3.29 ± 0.63.

And the “Volume of left lung” value [3]?
The value was 1.21 ± 0.09 cm^3.

What about the “Weight of left lung” value [3] of the same compound?
The value was 1.13 ± 0.08 g.

What about the “injury of terminal bronchioles and pulmonary arterioles compared with model group and Compound A-5 mpk group” value (10 mpk, fibrosis foci, p<0.001) of the same compound?
The value was “significantly reduced”.

And the “weight of left lung compared with model group” value (10 mpk)?
Its value is “significantly lower”.

What about the “weight of left lung compared with model group” value (20 mpk) of the same compound?
Its value is “significantly lower”.

What about the “degree of pulmonary fibrosis (Ashcraft score) compared with model group” value (BIBF1120 60 mg/kg/d, Compound A 5, 10, 20 mg/kg/d, p<0.01) of the same compound?
The value was “significantly alleviated”.

What about the “average score of fibrosis in the entire fibrosis lesion (ashcraft)” value (BIBF1120 60 mg/kg/d, compound A 5, 10, 20 mg/kg/d) of the same compound?
The value was “about 3 points”.

Source: patent US20190255042A1, “APPLICATION OF HEDGEHOG PATHWAY INHIBITOR IN TREATING FIBROSIS DISEASES” (IMPACT THERAPEUTICS, INC, priority 2016, published 2019)
